Among the data in patent US11685732B2, “MYST family histone acetyltransferase inhibitors” (Epizyme, Inc., priority 2017, dated 2023) are IC50 values, retold here.

One experiment addresses KAT-6A (Homo sapiens (Human), UniProt Q92794). The experiment in a line: KAT-6A biochemical inhibition assay (SAMDI mass spectrometry). The essentials: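 IC50 values came from SAMDI time-of-flight mass spectrometry after formic acid quench (0.5% final). Acetylation ran 90 min at 25 °C with 1 μM acetyl coenzyme A and 1 μM peptide substrate, following compound pre-incubation with 12.5 nM KAT-6A in Tris buffer pH 8.0 containing DTT, 2% DMSO final.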

The target in a further experiment is KAT-7 (Homo sapiens (Human), UniProt O95251). The experiment in a line: KAT-7 biochemical inhibition assay (SAMDI mass spectrometry). The essentials:
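Read-out was SAMDI time-of-flight MS of formic acid-quenched reactions (0.5% final). Compound dilutions (2% DMSO final) were pre-incubated with 6 nM KAT-7 in 50 mM Tris pH 8.0 with 1 mM DTT, then given 1 μM peptide substrate and 2 μM acetyl-CoA for 120 min at 25 °C. IC50 values were derived.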

In a further experiment the target is KAT-8 (Homo sapiens (Human), UniProt Q9H7Z6). The experiment in a line: KAT-8 biochemical inhibition assay (SAMDI mass spectrometry). The essentials:
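Acetylation of 1 μM peptide substrate with 5 μM acetyl-CoA by 12.5 nM enzyme, compound pre-incubated, 2% DMSO, Tris pH 8.0 buffer with DTT, 25 °C for 90 min. Quench with 0.5% formic acid; product read by SAMDI mass spectrometry to give IC50.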

The next experiment addresses KAT-5 (Homo sapiens (Human), UniProt Q92993). The experiment in a line: KAT-5 biochemical inhibition assay (SAMDI mass spectrometry). In short, it runs like this: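 Acetylation of 1 μM peptide by 9 nM enzyme with 0.5 μM acetyl-CoA (final) was run 90 min at 25° C in Tris pH 8.0 buffer with DTT, after compound preincubation at 2% DMSO. Formic acid stopped the reaction, and product was quantified by SAMDI mass spectrometry to derive IC50.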

A value given as a limit tells only on which side of the number the result lay.

As a reminder, the IC50 is the midpoint of a concentration-inhibition curve. Low values mean higher potency, high ones lower potency.

Sequence of KAT-7 (O95251 other isoform, or with tags, fused parts or gaps): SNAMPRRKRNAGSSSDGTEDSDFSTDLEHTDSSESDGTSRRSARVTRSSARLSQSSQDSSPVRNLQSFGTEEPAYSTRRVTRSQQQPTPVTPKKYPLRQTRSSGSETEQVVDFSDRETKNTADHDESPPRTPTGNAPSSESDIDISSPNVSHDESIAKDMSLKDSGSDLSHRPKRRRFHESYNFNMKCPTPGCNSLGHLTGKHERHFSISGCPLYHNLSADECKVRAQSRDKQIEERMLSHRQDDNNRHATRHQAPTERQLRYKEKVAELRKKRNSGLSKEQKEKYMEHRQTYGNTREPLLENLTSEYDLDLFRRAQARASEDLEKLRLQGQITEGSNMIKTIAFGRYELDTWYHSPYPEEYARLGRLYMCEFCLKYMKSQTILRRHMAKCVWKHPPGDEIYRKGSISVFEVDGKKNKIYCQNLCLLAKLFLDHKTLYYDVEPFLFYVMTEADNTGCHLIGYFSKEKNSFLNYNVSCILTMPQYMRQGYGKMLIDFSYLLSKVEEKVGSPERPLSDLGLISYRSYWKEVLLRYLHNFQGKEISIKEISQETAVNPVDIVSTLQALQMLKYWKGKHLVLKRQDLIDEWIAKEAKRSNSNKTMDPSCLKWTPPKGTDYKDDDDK
Sequence of KAT-8 (Q9H7Z6 other isoform, or with tags, fused parts or gaps): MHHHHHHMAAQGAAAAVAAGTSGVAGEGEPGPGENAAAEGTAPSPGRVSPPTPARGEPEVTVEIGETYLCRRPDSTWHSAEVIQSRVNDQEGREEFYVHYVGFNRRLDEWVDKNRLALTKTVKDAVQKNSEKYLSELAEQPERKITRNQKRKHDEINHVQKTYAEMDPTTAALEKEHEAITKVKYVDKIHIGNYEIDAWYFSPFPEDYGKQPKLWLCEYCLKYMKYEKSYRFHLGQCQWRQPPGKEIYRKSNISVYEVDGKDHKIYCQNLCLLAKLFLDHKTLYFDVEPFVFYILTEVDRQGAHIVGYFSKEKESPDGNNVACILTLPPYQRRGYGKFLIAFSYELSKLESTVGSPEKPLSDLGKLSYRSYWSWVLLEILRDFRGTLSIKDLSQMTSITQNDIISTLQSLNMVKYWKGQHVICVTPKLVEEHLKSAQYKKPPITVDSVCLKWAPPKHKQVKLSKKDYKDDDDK
Sequence of KAT-6A (Q92794 other isoform, or with tags, fused parts or gaps): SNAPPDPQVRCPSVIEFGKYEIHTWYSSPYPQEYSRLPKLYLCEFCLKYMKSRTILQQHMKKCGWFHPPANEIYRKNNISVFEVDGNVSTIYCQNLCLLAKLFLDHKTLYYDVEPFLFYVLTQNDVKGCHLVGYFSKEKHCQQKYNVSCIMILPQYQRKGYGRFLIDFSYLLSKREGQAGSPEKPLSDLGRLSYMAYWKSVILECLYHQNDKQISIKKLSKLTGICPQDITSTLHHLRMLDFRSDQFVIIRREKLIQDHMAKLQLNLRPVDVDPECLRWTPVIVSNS
Sequence of KAT-5 (Q92993 other isoform, or with tags, fused parts or gaps): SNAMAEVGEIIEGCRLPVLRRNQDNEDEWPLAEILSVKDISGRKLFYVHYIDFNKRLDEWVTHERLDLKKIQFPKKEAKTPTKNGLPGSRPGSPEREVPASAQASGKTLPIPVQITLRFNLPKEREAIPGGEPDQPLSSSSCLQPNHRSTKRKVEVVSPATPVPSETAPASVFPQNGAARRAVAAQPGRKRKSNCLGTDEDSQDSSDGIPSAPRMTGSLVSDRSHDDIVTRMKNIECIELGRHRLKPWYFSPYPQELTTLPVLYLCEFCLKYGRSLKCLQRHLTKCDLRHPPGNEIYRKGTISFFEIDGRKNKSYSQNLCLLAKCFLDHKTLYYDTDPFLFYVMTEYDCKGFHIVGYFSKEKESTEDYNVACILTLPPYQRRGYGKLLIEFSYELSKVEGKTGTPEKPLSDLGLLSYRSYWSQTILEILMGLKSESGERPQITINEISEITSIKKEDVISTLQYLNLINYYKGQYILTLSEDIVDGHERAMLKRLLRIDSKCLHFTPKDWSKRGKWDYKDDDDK

`Cn1cnc(-c2cc(Cl)c(F)c(C(=O)NNS(=O)(=O)CC3CCN(C(=O)CO)C3)c2)c1` (stereo not drawn) [Compound I-89]: the IC50 was 10 to 50 µM at KAT-6A, less than 10 µM against KAT-7, 10 to 50 µM on KAT-8 and 10 to 50 µM at KAT-5.

As for `O=C(NNS(=O)(=O)CC1CCOCC1)c1cc(-n2ccnn2)cc(Cl)c1F` [Compound I-90], the IC50 against KAT-6A, on KAT-7, against KAT-8 and on KAT-5 was 10 to 50 µM in each case.

For the compound `Cn1cnc(-c2cc(Cl)c(F)c(C(=O)NNS(=O)(=O)CC3CCCC(S(=O)(=O)C4CCC4)C3)c2)c1` (stereo not drawn) [Compound I-91], the half-inhibitory concentration (IC50) against KAT-6A was less than 10 µM; against KAT-7 it was less than 10 µM; against KAT-8, 10 to 50 µM; at KAT-5 it was less than 10 µM.

As for `CC(C)S(=O)(=O)N1CCC(CS(=O)(=O)NNC(=O)c2cc(-c3cn(C)cn3)cc(Cl)c2F)C1` (stereo not drawn) [Compound I-92], the IC50 on KAT-6A is less than 10 µM; against KAT-7, less than 10 µM; against KAT-8 it was 10 to 50 µM; against KAT-5 it was less than 10 µM.

For the compound `Cn1cnc(-c2cc(Cl)c(F)c(C(=O)NNS(=O)(=O)C[C@H]3CC[C@H](N)CC3)c2)c1` [Compound I-93], the IC50 at KAT-6A was 10 to 50 µM; at KAT-7, less than 10 µM; at KAT-8, 10 to 50 µM; on KAT-5, 10 to 50 µM.

Consider `CCCS(=O)(=O)N1CCCC(CS(=O)(=O)NNC(=O)c2cc(-c3cn(C)cn3)cc(Cl)c2F)C1` (stereo not drawn) [Compound I-94], for which the IC50 against KAT-6A was less than 10 µM; against KAT-7, less than 10 µM; against KAT-8, 10 to 50 µM; against KAT-5 it was less than 10 µM.

As to `Cn1cnc(-c2cc(Cl)c(F)c(C(=O)NNS(=O)(=O)CC3CN(C(=O)OC(C)(C)C)C3)c2)c1` [Compound I-95], the IC50 on KAT-6A is less than 10 µM; at KAT-7 it was less than 10 µM; at KAT-8, 10 to 50 µM; at KAT-5, 10 to 50 µM.

Consider `Cn1cnc(-c2cc(Cl)c(F)c(C(=O)NNS(=O)(=O)C[C@H]3CC[C@H](NC(=O)OC(C)(C)C)CC3)c2)c1` [Compound I-96], for which the IC50 at KAT-6A was less than 10 µM; at KAT-7 it was less than 10 µM; on KAT-8, 10 to 50 µM; against KAT-5, less than 10 µM.

`CCNC(=O)NC1CCCC(CS(=O)(=O)NNC(=O)c2cc(-c3cn(C)cn3)cc(Cl)c2F)C1` (stereo not drawn) [Compound I-97]: the IC50 was less than 10 µM at KAT-6A, less than 10 µM against KAT-7, 10 to 50 µM on KAT-8 and less than 10 µM on KAT-5.

As for `Cc1ncnn1-c1cc(Cl)c(F)c(C(=O)NNS(=O)(=O)CC2CCOCC2)c1` [Compound I-100], the IC50 against KAT-6A, on KAT-7, against KAT-8 and against KAT-5 was 10 to 50 µM each time.

For the compound `CC(=O)N[C@H]1CC[C@H](CS(=O)(=O)NNC(=O)c2cc(-c3cn(C)cn3)cc(Cl)c2F)CC1` [Compound I-101], the 50% inhibitory concentration (IC50) on KAT-6A is less than 10 µM; on KAT-7, less than 10 µM; on KAT-8, 10 to 50 µM; on KAT-5, less than 10 µM.

Take `Cn1cnc(-c2cc(Cl)c(F)c(C(=O)NNS(=O)(=O)CC3CCCC(NC(=O)OC(C)(C)C)C3)c2)c1` (stereo not drawn) [Compound I-102]: the IC50 was less than 10 µM on KAT-6A, less than 10 µM against KAT-7, 10 to 50 µM against KAT-8 and less than 10 µM on KAT-5.

As for `Cn1cnc(-c2cc(Cl)c(F)c(C(=O)NNS(=O)(=O)CC3CCCC(N)C3)c2)c1` (stereo not drawn) [Compound I-103], the IC50 at KAT-6A is 10 to 50 µM; on KAT-7, less than 10 µM; on KAT-8, 10 to 50 µM; against KAT-5, 10 to 50 µM.

Turning to `CN(C)C(=O)NC1CCCC(CS(=O)(=O)NNC(=O)c2cc(-c3cn(C)cn3)cc(Cl)c2F)C1` (stereo not drawn) [Compound I-104], the IC50 at KAT-6A is less than 10 µM; against KAT-7, less than 10 µM; on KAT-8, 10 to 50 µM; against KAT-5, less than 10 µM.

Regarding `CCNC(=O)N1CCCC(CS(=O)(=O)NNC(=O)c2cc(-c3cn(C)cn3)cc(Cl)c2F)C1` (stereo not drawn) [Compound I-105], the IC50 against KAT-6A was less than 10 µM; against KAT-7 it was less than 10 µM; against KAT-8, 10 to 50 µM; against KAT-5, less than 10 µM.

On to `Cn1cnc(-c2cc(Cl)c(F)c(C(=O)NNS(=O)(=O)CC3CCN(S(=O)(=O)C4CCC4)C3)c2)c1` (stereo not drawn) [Compound I-106], for which the IC50 is less than 10 µM against KAT-6A, less than 10 µM against KAT-7, 10 to 50 µM at KAT-8 and less than 10 µM on KAT-5.

As to `CCNC(=O)N[C@H]1C[C@@H](CS(=O)(=O)NNC(=O)c2cc(-c3cn(C)cn3)cc(Cl)c2F)C1` [Compound I-107], the IC50 was less than 10 µM on KAT-6A, less than 10 µM against KAT-7, 10 to 50 µM against KAT-8 and less than 10 µM against KAT-5.

Turning to `Cn1cnc(-c2cc(Cl)c(F)c(C(=O)NNS(=O)(=O)N3CCOCC3)c2)c1` [Compound I-108], the IC50 on KAT-6A was 10 to 50 µM; on KAT-7, less than 10 µM; against KAT-8, 10 to 50 µM; at KAT-5, 10 to 50 µM.

`CCNC(=O)N[C@H]1CC[C@H](CS(=O)(=O)NNC(=O)c2cc(-c3cn(C)cn3)cc(Cl)c2F)CC1` [Compound I-109]: the IC50 against KAT-6A was less than 10 µM; on KAT-7, less than 10 µM; against KAT-8, 10 to 50 µM; against KAT-5 it was less than 10 µM.

As for `Cn1cnc(-c2cc(Cl)c(F)c(C(=O)NNS(=O)(=O)c3ccccc3)c2)c1` [Compound I-110], the IC50 against KAT-6A was less than 10 µM; against KAT-7, less than 10 µM; against KAT-8, 10 to 50 µM; on KAT-5, less than 10 µM.

For `Cn1cnc(-c2cc(Cl)c(F)c(C(=O)NNS(=O)(=O)Cc3ccccc3)c2)c1` [Compound I-111], the IC50 at KAT-6A was less than 10 µM; against KAT-7, less than 10 µM; against KAT-8 it was 10 to 50 µM; against KAT-5, less than 10 µM.

On to `CCNC(=O)N[C@H]1C[C@H](CS(=O)(=O)NNC(=O)c2cc(-c3cn(C)cn3)cc(Cl)c2F)C1` [Compound I-112], for which the IC50 at KAT-6A was 10 to 50 µM; on KAT-7 it was less than 10 µM; against KAT-8 it was 10 to 50 µM; at KAT-5, less than 10 µM.

Turning to `Cn1cnc(-c2cc(Cl)c(F)c(C(=O)NNS(=O)(=O)C[C@H]3C[C@@H](N)C3)c2)c1` [Compound I-113], the IC50 is 10 to 50 µM against KAT-6A, less than 10 µM against KAT-7, 10 to 50 µM against KAT-8 and 10 to 50 µM at KAT-5.

Regarding `Cn1cnc(-c2cc(Cl)c(F)c(C(=O)NNS(=O)(=O)C[C@H]3C[C@@H](NC(=O)OC(C)(C)C)C3)c2)c1` [Compound I-114], the IC50 on KAT-6A is less than 10 µM; against KAT-7, less than 10 µM; against KAT-8, 10 to 50 µM; against KAT-5, less than 10 µM.

For the compound `Cn1cnc(-c2cc(Cl)c(F)c(C(=O)NNS(=O)(=O)CC3CCCC(NC(N)=O)C3)c2)c1` (stereo not drawn) [Compound I-115], the IC50 against KAT-6A was less than 10 µM; at KAT-7, less than 10 µM; on KAT-8 it was 10 to 50 µM; at KAT-5 it was less than 10 µM.

As for `CC(=O)N[C@H]1C[C@@H](CS(=O)(=O)NNC(=O)c2cc(-c3cn(C)cn3)cc(Cl)c2F)C1` [Compound I-116], the IC50 against KAT-6A is less than 10 µM; on KAT-7, less than 10 µM; at KAT-8, 10 to 50 µM; on KAT-5 it was less than 10 µM.

On to `Cn1cnc(-c2cc(Cl)c(F)c(C(=O)NNS(=O)(=O)C[C@@H]3CCN(C(=O)OC(C)(C)C)C3)c2)c1` [Compound I-117], for which the IC50 on KAT-6A was less than 10 µM; at KAT-7, less than 10 µM; against KAT-8, 10 to 50 µM; on KAT-5 it was less than 10 µM.

In the case of `CNC(=O)NC1CCCC(CS(=O)(=O)NNC(=O)c2cc(-c3cn(C)cn3)cc(Cl)c2F)C1` (stereo not drawn) [Compound I-118], the IC50 on KAT-6A was less than 10 µM; against KAT-7, less than 10 µM; against KAT-8 it was 10 to 50 µM; against KAT-5 it was less than 10 µM.

For the compound `COCCc1nc(-c2cc(Cl)c(F)c(C(=O)NNS(=O)(=O)C3CCOCC3)c2)cn1C` [Compound I-119], the IC50 on KAT-6A, against KAT-7, against KAT-8 and against KAT-5 was 10 to 50 µM throughout.

In the case of `Cn1cnc(-c2cc(Cl)c(F)c(C(=O)NNS(=O)(=O)C[C@@H]3CCNC3)c2)c1` [Compound I-120], the IC50 is 10 to 50 µM on KAT-6A, less than 10 µM on KAT-7, 10 to 50 µM at KAT-8 and 10 to 50 µM on KAT-5.

In the case of `Cn1cnc(-c2cc(Cl)c(F)c(C(=O)NNS(=O)(=O)C[C@H]3CCNC3)c2)c1` [Compound I-121], the half-maximal inhibitory concentration (IC50) against KAT-6A was 10 to 50 µM; at KAT-7, less than 10 µM; at KAT-8, 10 to 50 µM; against KAT-5 it was 10 to 50 µM.

As for `Cn1cnc(-c2cc(Cl)c(F)c(C(=O)NNS(=O)(=O)C[C@H]3CCN(C(=O)OC(C)(C)C)C3)c2)c1` [Compound I-122], the IC50 is 10 to 50 µM at KAT-6A, less than 10 µM against KAT-7, 10 to 50 µM at KAT-8 and 10 to 50 µM at KAT-5.

Consider `Cn1cnc(-c2cc(Cl)c(F)c(C(=O)NNS(=O)(=O)C[C@H]3C[C@H](N)C3)c2)c1` [Compound I-123], for which the IC50 is 10 to 50 µM against KAT-6A, less than 10 µM against KAT-7, 10 to 50 µM on KAT-8 and 10 to 50 µM at KAT-5.
